Test results published in patent US9169209B2, “Compounds and compositions for the inhibition of NAMPT” (FORMA TM, LLC, priority 2011, dated 2015).
pIC50: −log10 of the molar value. Where two headings read alike, the source gives them in different places.

Tests used:
[1] = test system: A2780 cells; assay: In-Vitro Cell Proliferation Assay (SRB, 72 hours); type: cell-based; details: Homo sapiens, A2780, 72 h, read-out: A2780 IC50
Procedure, shortened: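 Plated cells exposed to serially diluted compound (0.1% DMSO final) for 72 h at 37 °C, 5% CO2. Viability by SRB staining after TCA fixation, absorbance 570 nm, media-only background subtracted; % inhibition relative to DMSO-treated cells, interpolated between bracketing concentrations.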

[2] = molecular target: NAMPT (Homo sapiens (Human), UniProt P43490); assay: Biochemical Inhibition Assay (NAMPT enzymatic reaction, NMN quantified by mass spectrometry); details: recombinant His-tagged NAMPT, 33 nM; 1 μM NAM; read-out: Biochem IC50
Chain of NAMPT (P43490 whole entry): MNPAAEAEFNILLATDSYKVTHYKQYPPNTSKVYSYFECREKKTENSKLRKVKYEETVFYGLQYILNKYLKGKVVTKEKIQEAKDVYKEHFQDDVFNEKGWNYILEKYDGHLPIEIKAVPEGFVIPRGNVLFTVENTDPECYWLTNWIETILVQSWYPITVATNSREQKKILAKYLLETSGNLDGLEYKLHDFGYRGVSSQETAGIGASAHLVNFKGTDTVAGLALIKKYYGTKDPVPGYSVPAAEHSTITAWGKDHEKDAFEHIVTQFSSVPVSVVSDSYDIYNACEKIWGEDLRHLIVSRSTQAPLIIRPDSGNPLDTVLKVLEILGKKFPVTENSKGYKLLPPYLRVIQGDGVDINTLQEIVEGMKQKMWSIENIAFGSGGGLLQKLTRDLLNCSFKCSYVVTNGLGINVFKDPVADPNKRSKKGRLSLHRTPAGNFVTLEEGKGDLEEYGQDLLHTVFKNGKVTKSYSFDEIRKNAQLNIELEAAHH
Procedure, shortened: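 His-tagged human NAMPT from E. coli was preincubated 15 min at RT with compound in Hepes pH 7.5/MgCl2 buffer. Reaction ran 30 min at RT with 1 μM NAM, 100 μM PRPP and 2.5 mM ATP, then was quenched with formic acid. NMN was measured by RapidFire MS, normalized to L-cystathionine, and IC50 derived from % inhibition.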

[3] = A2780 cells, 72 hours, sulforhodamine B

SMILES | pIC50 [1] | pIC50 [2] | pIC50 [1, 3]
O=C(/C=C/c1cccnc1)Nc1ccc(S(=O)(=O)c2cccc(Cl)c2)cc1 [(2E)-N-{4-[(3-chlorobenzene)sulfonyl]phenyl}-3-(pyridin-3-yl)prop-2-enamide] | 6.74 | 6.91 | 
O=C(/C=C/c1cccnc1)Nc1ccc(S(=O)(=O)c2cc(OC(F)(F)F)ccc2Cl)cc1 [(2E)-N-(4-{[2-chloro-5-(trifluoromethoxy)benzene]sulfonyl}phenyl)-3-(pyridin-3-yl)prop-2-enamide] |  | 7.68 | 6.00 to 7.00
COCc1cccc(S(=O)(=O)c2ccc(NC(=O)/C=C/c3cccnc3)cc2)c1 [(2E)-N-(4-{[3-(methoxymethyl)benzene]sulfonyl}phenyl)-3-(pyridin-3-yl)prop-2-enamide] |  | 8.11 | 7.11
NS(=O)(=O)c1cccc(S(=O)(=O)c2ccc(NC(=O)/C=C/c3cccnc3)cc2)c1 [(2E)-3-(pyridin-3-yl)-N-{4-[(3-sulfamoylbenzene)sulfonyl]phenyl}prop-2-enamide] |  | 8.00 | 6.00 to 7.00
O=C(/C=C/c1cccnc1)Nc1ccc(S(=O)(=O)c2ccc(OC(F)(F)F)cc2)cc1 [(2E)-3-(pyridin-3-yl)-N-(4-{[4-(trifluoromethoxy)benzene]sulfonyl}phenyl)prop-2-enamide] |  | 6.78 | 6.00 to 7.00
Cn1ncc2cccc(S(=O)(=O)c3ccc(NC(=O)/C=C/c4cccnc4)cc3)c21 [(2E)-N-[4-(1-methyl-1H-indazole-7-sulfonyl)phenyl]-3-(pyridin-3-yl)prop-2-enamide] |  | 8.05 | 6.00 to 7.00
Cc1ccc(S(=O)(=O)c2ccc(NC(=O)/C=C/c3cccnc3)cc2)s1 [(2E)-N-[4-(5-methylthiophene-2-sulfonyl)phenyl]-3-(pyridin-3-yl)prop-2-enamide] |  | 7.78 | 6.00 to 7.00
COc1ccc(C(F)(F)F)cc1S(=O)(=O)c1ccc(NC(=O)/C=C/c2cccnc2)cc1 [(2E)-N-(4-{[2-methoxy-5-(trifluoromethyl)benzene]sulfonyl}phenyl)-3-(pyridin-3-yl)prop-2-enamide] |  | 7.62 | 7.72
Cc1ccc(F)cc1S(=O)(=O)c1ccc(NC(=O)/C=C/c2cccnc2)cc1 [(2E)-N-{4-[(5-fluoro-2-methylbenzene)sulfonyl]phenyl}-3-(pyridin-3-yl)prop-2-enamide] |  | 8.13 | 7.05
Cc1cc(F)cc(S(=O)(=O)c2ccc(NC(=O)/C=C/c3cccnc3)cc2)c1 [(2E)-N-{4-[(3-fluoro-5-methylbenzene)sulfonyl]phenyl}-3-(pyridin-3-yl)prop-2-enamide] |  | 7.76 | 6.97
O=C(/C=C/c1cccnc1)Nc1ccc(S(=O)(=O)c2cc(F)cc(Cl)c2)cc1 [(2E)-N-{4-[(3-chloro-5-fluorobenzene)sulfonyl]phenyl}-3-(pyridin-3-yl)prop-2-enamide] |  | 6.91 | 6.75
COc1cc(Cl)ccc1S(=O)(=O)c1ccc(NC(=O)/C=C/c2cccnc2)cc1 [(2E)-N-{4-[(4-chloro-2-methoxybenzene)sulfonyl]phenyl}-3-(pyridin-3-yl)prop-2-enamide] |  | 8.14 | 6.96
CCOCc1ccc(S(=O)(=O)c2ccc(NC(=O)/C=C/c3cccnc3)cc2)cc1 [(2E)-N-(4-{[4-(ethoxymethyl)benzene]sulfonyl}phenyl)-3-(pyridin-3-yl)prop-2-enamide] |  | 8.11 | 6.00 to 7.00
CC(C)COc1cc(F)cc(S(=O)(=O)c2ccc(NC(=O)/C=C/c3cccnc3)cc2)c1 [(2E)-N-(4-{[3-fluoro-5-(2-methylpropoxy)benzene]sulfonyl}phenyl)-3-(pyridin-3-yl)prop-2-enamide] |  | 7.45 | 7.21
O=C(/C=C/c1cccnc1)Nc1ccc(S(=O)(=O)c2cccc(N3CCOCC3)c2)cc1 [(2E)-N-(4-{[3-(morpholin-4-yl)benzene]sulfonyl}phenyl)-3-(pyridin-3-yl)prop-2-enamide] |  | 8.04 | 7.52
O=C(/C=C/c1cccnc1)Nc1ccc(S(=O)(=O)c2cccc3[nH]ccc23)cc1 [(2E)-N-[4-(1H-indole-4-sulfonyl)phenyl]-3-(pyridin-3-yl)prop-2-enamide] |  | 8.64 | 7.40
CCc1cccc(S(=O)(=O)c2ccc(NC(=O)/C=C/c3cccnc3)cc2)c1 [(2E)-N-{4-[(3-ethylbenzene)sulfonyl]phenyl}-3-(pyridin-3-yl)prop-2-enamide] |  | 8.48 | 7.52
CC(C)Oc1ccc(S(=O)(=O)c2ccc(NC(=O)/C=C/c3cccnc3)cc2)cc1 [(2E)-N-(4-{[4-(propan-2-yloxy)benzene]sulfonyl}phenyl)-3-(pyridin-3-yl)prop-2-enamide] |  | 8.27 | 7.04
COc1ccc(OC(F)(F)F)cc1S(=O)(=O)c1ccc(NC(=O)/C=C/c2cccnc2)cc1 [(2E)-N-(4-{[2-methoxy-5-(trifluoromethoxy)benzene]sulfonyl}phenyl)-3-(pyridin-3-yl)prop-2-enamide] |  | 7.77 | 7.53
